Results: PMC4068261 (Journal of natural products, 2014)

Experiments:
[1] = system: HIV-1; assay: microbe, parasite or virus in culture; assay type: cell-based; conditions: Human immunodeficiency virus 1, HOG.R5, read-out: anti-HIV activity IC50
[2] = system: HIV-1; conditions: previous discovery; cited from earlier work

| SMILES | IC50 [1] [µM] | anti-HIV activity (in words) [2] |
| --- | --- | --- |
| COc1cc(O)cc2c1C(=O)C[C@@H](c1ccccc1)O2 [Compound 5, alpinetin] | 130 |  |
| C=Cc1c(C)c2cc3nc(c4c5[nH]c(cc6nc(cc1[nH]2)C(C)=C6CC)c(C)c5C(=O)[C@@H]4C(=O)OC)[C@@H](CCC(=O)O)[C@@H]3C [pheophorbide a] |  | potent anti-HIV agent |
